In ChEMBL document CHEMBL6127136, “Discovery of 1-(Phenylsulfonyl)-1,2,3,4-tetrahydroquinoline Derivative as Orally Bioavailable and Safe RORγt Inverse Agonists for Potential Treatment of Rheumatoid Arthritis” (J Med Chem, 2024):
Activity calls are given as the source filed them. No cut-off for these calls is given here.

What was measured:
[1] = target: T1, Nuclear receptor ROR-gamma (Homo sapiens, UniProt P51449); experiment: Inverse agonist activity at N-terminal 6-His-tagged/APC-labeled human RORgammat LBD extracted from Escherichia coli assessed as inhibition of europium-labeled SRC-1 recruitment incubated for 3 hrs by TR-FRET analysis
T1 sequence (P51449 whole entry): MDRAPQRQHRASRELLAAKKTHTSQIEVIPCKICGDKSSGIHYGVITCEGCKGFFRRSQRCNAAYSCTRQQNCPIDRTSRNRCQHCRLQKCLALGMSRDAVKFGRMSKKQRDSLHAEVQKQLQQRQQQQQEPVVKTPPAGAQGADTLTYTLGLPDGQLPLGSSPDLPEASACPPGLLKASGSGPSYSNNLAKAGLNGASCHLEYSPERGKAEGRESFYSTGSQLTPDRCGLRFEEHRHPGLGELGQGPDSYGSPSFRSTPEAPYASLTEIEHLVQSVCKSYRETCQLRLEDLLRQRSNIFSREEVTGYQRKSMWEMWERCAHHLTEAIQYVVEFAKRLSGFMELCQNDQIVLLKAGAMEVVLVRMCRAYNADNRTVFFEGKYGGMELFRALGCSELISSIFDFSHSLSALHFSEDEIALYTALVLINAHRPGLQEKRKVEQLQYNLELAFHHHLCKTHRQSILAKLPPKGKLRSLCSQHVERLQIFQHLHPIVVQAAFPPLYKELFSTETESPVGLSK

[2] = target: T1, Nuclear receptor ROR-gamma; experiment: Inverse agonist activity at GAL4 DNA-binding domain fused RORgamma (unknown origin) transfected in HEK293T cells co-transfected with GAL4-promoter driven luciferase reporter gene assessed as inhibition of RORgammat transcription incubated for 18 to 20 hrs by plate reader analysis; type: cell-based
[3] = Half-life in male DBA/1 mouse at 5 mg/kg, iv measured after 24 hrs by HPLC analysis; type: ADME, organism-based; conditions: in vivo
[4] = Tmax in male DBA/1 mouse at 5 mg/kg, iv measured after 24 hrs by HPLC analysis; type: ADME, organism-based; conditions: in vivo
[5] = Cmax in male DBA/1 mouse at 5 mg/kg, iv measured after 24 hrs by HPLC analysis; type: ADME, organism-based; conditions: in vivo
[6] = AUC (0 to t) in male DBA/1 mouse at 5 mg/kg, iv measured after 24 hrs by HPLC analysis; type: ADME, organism-based; conditions: in vivo
[7] = AUC (0 to infinity) in male DBA/1 mouse at 5 mg/kg, iv measured after 24 hrs by HPLC analysis; type: ADME, organism-based; conditions: in vivo
[8] = Clearance in male DBA/1 mouse at 5 mg/kg, iv measured after 24 hrs by HPLC analysis; type: ADME, organism-based; conditions: in vivo
[9] = Half-life in male DBA/1 mouse at 20 mg/kg, po measured after 24 hrs by HPLC analysis; type: ADME, organism-based; conditions: in vivo
[10] = Tmax in male DBA/1 mouse at 20 mg/kg, po measured after 24 hrs by HPLC analysis; type: ADME, organism-based; conditions: in vivo
[11] = Cmax in male DBA/1 mouse at 20 mg/kg, po measured after 24 hrs by HPLC analysis; type: ADME, organism-based; conditions: in vivo
[12] = AUC (0 to t) in male DBA/1 mouse at 20 mg/kg, po measured after 24 hrs by HPLC analysis; type: ADME, organism-based; conditions: in vivo
[13] = AUC (0 to infinity) in male DBA/1 mouse at 20 mg/kg, po measured after 24 hrs by HPLC analysis; type: ADME, organism-based; conditions: in vivo
[14] = Oral bioavailability in male DBA/1 mouse at 20 mg/kg measured after 24 hrs by HPLC analysis; type: ADME, organism-based; conditions: in vivo
[15] = Toxicity in imiquimod-induced psoriasis-like skin inflammation Balb/c mouse model assessed as change in body weight at 10 mg/kg, IG preadministered with IMQ for 3 days followed by compound administration from day 4 and measured on day 14; type: organism-based; conditions: in vivo, po, 264 h, time 11 day
Mus musculus [16] = experiment: (§1) Antiinflammatory activity against imiquimod-induced psoriasis-like skin inflammation in Balb/c mouse model assessed as reduction in mononuclear cell infiltration in skin at 10 mg/kg, IG preadministered with IMQ for 3 days followed by compound administration from day 4 and measured on day 14 by H and E staining based analysis; type: functional, organism-based; conditions: time 11.0 day
Mus musculus [17] = experiment: as §1, with “inflammatory” for “mononuclear”; type: functional, organism-based; conditions: time 11.0 day
Mus musculus [18] = experiment: Antiinflammatory activity against imiquimod-induced psoriasis-like skin inflammation in Balb/c mouse model assessed as attenuation of skin layer thickening at 10 mg/kg, IG preadministered with IMQ for 3 days followed by compound administration from day 4 and measured on day 14 by H and E staining based analysis; type: functional, organism-based; conditions: time 11.0 day
Mus musculus [19] = experiment: as §1, with “decrease” for “reduction”, “dermal telangiectasia” for “mononuclear cell infiltration in skin”; type: functional, organism-based; conditions: time 11.0 day
Mus musculus [20] = experiment: as §1, with “decrease” for “reduction”, “IL-17A expression” for “mononuclear cell infiltration”, “immunohistochemical” for “H and E staining based”; type: functional, organism-based; conditions: time 11.0 day
Mus musculus [21] = experiment: as §1, with “decrease” for “reduction”, “IL-17F expression” for “mononuclear cell infiltration”, “immunohistochemical” for “H and E staining based”; type: functional, organism-based; conditions: time 11.0 day
Mus musculus [22] = experiment: as §1, with “decrease” for “reduction”, “IL-23 expression” for “mononuclear cell infiltration”, “immunohistochemical” for “H and E staining based”; type: functional, organism-based; conditions: time 11.0 day
[23] = Toxicity in chicken type II collagen-induced arthritis DBA/1 mouse model assessed as behavioral abnormalities at 20 mg/kg/day, po measured after 42 days; type: organism-based; conditions: in vivo, 1008 h, time 42 day
[24] = Toxicity in chicken type II collagen-induced arthritis DBA/1 mouse model assessed as body weight loss at 20 mg/kg/day, po measured after 42 days; type: organism-based; conditions: in vivo, 1008 h, time 42 day
Mus musculus [25] = experiment: Antiarthritic activity in chicken type II collagen-induced arthritis DBA/1 mouse model assessed as reduction in clinical score at 20 mg/kg/day, po measured after 42 days; type: functional, organism-based; conditions: time 42.0 day
[26] = Toxicity in chicken type II collagen-induced arthritis DBA/1 mouse model assessed as increase in thymic cortex to medulla ratio at 20 mg/kg/day, po administered for 2 weeks by H and E staining based analysis; type: organism-based; conditions: in vivo, 336 h
[27] = Toxicity in chicken type II collagen-induced arthritis DBA/1 mouse model assessed as signs of thymic enlargement at 20 mg/kg/day, po administered for 2 weeks by H and E staining based analysis; type: organism-based; conditions: in vivo, 336 h
[28] = Toxicity in chicken type II collagen-induced arthritis DBA/1 mouse model assessed as signs of lymphoma at 20 mg/kg/day, po administered for 2 weeks by H and E staining based analysis; type: organism-based; conditions: in vivo, 336 h
[29] = Toxicity in chicken type II collagen-induced arthritis DBA/1 mouse model assessed as morphological changes in thymocytes at 20 mg/kg/day, po administered for 2 weeks by H and E staining based analysis; type: organism-based; conditions: in vivo, 336 h
Mus musculus [30] = experiment: Antiarthritic activity in chicken type II collagen-induced arthritis DBA/1 mouse model assessed as improvement in arthritic symptoms at 20 mg/kg/day, po administered for 2 weeks by H and E staining based analysis; type: functional, organism-based
Mus musculus [31] = experiment: Antiarthritic activity in chicken type II collagen-induced arthritis DBA/1 mouse model assessed as reduction in fore paw erythema at 20 mg/kg/day, po administered for 2 weeks by H and E staining based analysis; type: functional, organism-based
Mus musculus [32] = experiment: Antiarthritic activity in chicken type II collagen-induced arthritis DBA/1 mouse model assessed as reduction in fore paw swelling at 20 mg/kg/day, po administered for 2 weeks by H and E staining based analysis; type: functional, organism-based
Mus musculus [33] = experiment: Antiarthritic activity in chicken type II collagen-induced arthritis DBA/1 mouse model assessed as reduction in fore paw thickness at 20 mg/kg/day, po administered for 2 weeks by H and E staining based analysis; type: functional, organism-based
Mus musculus [34] = experiment: Antiarthritic activity in chicken type II collagen-induced arthritis DBA/1 mouse model assessed as reduction in hind paw erythema at 20 mg/kg/day, po administered for 2 weeks by H and E staining based analysis; type: functional, organism-based
Mus musculus [35] = experiment: Antiarthritic activity in chicken type II collagen-induced arthritis DBA/1 mouse model assessed as reduction in hind paw swelling at 20 mg/kg/day, po administered for 2 weeks by H and E staining based analysis; type: functional, organism-based
Mus musculus [36] = experiment: Antiarthritic activity in chicken type II collagen-induced arthritis DBA/1 mouse model assessed as reduction in hind paw thickness at 20 mg/kg/day, po administered for 2 weeks by H and E staining based analysis; type: functional, organism-based

IC50 [1]: 2.5 nM | IC50 [2]: 13.6 nM | half-life [3]: 3.81 h | Tmax [4]: 4.98 min | Cmax [5]: 1280 ng/mL | AUC(0-t) at 24 h [6]: 1270 ng·h/mL | AUC(0-inf) [7]: 1310 ng·h/mL | clearance [8]: 64.2 mL/min/kg | half-life [9]: 4.99 h | Tmax [10]: 0.417 h | Cmax [11]: 99.3 ng/mL | AUC(0-t) at 24 h [12]: 299 ng·h/mL | AUC(0-inf) [13]: 326 ng·h/mL | bioavailability [14]: 6.2%
Structure (SMILES): CCc1ccc(N(CC(C)C)S(=O)(=O)c2ccc(OCC3CCOCC3)c(CO)c2)cc1 [GSK2981278]
Activity [15]: Non-Toxic | Activity (Mus musculus [16]): Active | Activity (Mus musculus [17]): Active | Activity (Mus musculus [18]): Active | Activity (Mus musculus [19]): Active | Activity (Mus musculus [20]): Active | Activity (Mus musculus [21]): Active | Activity (Mus musculus [22]): Active | Activity [23]: Non-Toxic | Activity [24]: Non-Toxic | Activity (Mus musculus [25]): Active | Activity [26]: Toxic | Activity [27]: Non-Toxic | Activity [28]: Non-Toxic | Activity [29]: Non-Toxic | Activity (Mus musculus [30]): Active | Activity (Mus musculus [31]): Active | Activity (Mus musculus [32]): Active | Activity (Mus musculus [33]): Active | Activity (Mus musculus [34]): Active | Activity (Mus musculus [35]): Active | Activity (Mus musculus [36]): Active
